Where a SMILES comes first, the peptide text is derived from it. Bridges are numbered along the chain shown (N, C = ends). [ ]: non-standard residue; d: D form. The star is where a group is joined. Threoninol(2S,3R) = C[C@@H](O)[C@H](CO)N*
Columns and labels:
[1] = test system: Hepatotoxicity; test: Literature-mined compound from Fourches et al multi-species drug-induced liver injury (DILI) dataset, effect in humans; settings: human
[2] = test system: Hepatotoxicity; test: Literature-mined compound from Fourches et al multi-species drug-induced liver injury (DILI) dataset, effect in rodents; settings: rodentia
[3] = test system: Hepatotoxicity; test: Literature-mined compound from Fourches et al multi-species drug-induced liver injury (DILI) dataset, effect in non-rodents

C[C@@H](O)[C@H](CO)NC(=O)[C@@H]1CSSC[C@H](NC(=O)[C@H](N)Cc2ccccc2)C(=O)N[C@@H](Cc2ccccc2)C(=O)N[C@H](Cc2c[nH]c3ccccc23)C(=O)N[C@@H](CCCCN)C(=O)N[C@@H]([C@@H](C)O)C(=O)N1 (H-[dF]CF[dW]KTC-{Threoninol(2S,3R)}; disulfide 2-7)
Hepatotoxicity [1]: drug-induced liver injury reported
Hepatotoxicity [2]: drug-induced liver injury reported
Hepatotoxicity [3]: no drug-induced liver injury reported

CN1[C@@H]2CC[C@H]1C[C@@H](OC(=O)C(CO)c1ccccc1)C2 (mixture of isomers) [ATROPINE]
Hepatotoxicity ([1]; Liver): no drug-induced liver injury reported
Hepatotoxicity ([2]; Liver): drug-induced liver injury reported
Hepatotoxicity ([3]; Liver): no drug-induced liver injury reported

CCN(CC)CCOc1ccc(C(=C(Cl)c2ccccc2)c2ccccc2)cc1 (stereo in doubt; form 1) [CLOMIPHENE]
Hepatotoxicity [1]: drug-induced liver injury reported
Hepatotoxicity [2]: no drug-induced liver injury reported
Hepatotoxicity [3]: no drug-induced liver injury reported

C[C@]12CCC(=O)C=C1CC[C@@H]1[C@@H]2CC[C@@]2(C)[C@H]1CC[C@]2(C)O (stereo in doubt; form 1) [METHYLTESTOSTERONE]
Hepatotoxicity [1]: no drug-induced liver injury reported
Hepatotoxicity [2]: drug-induced liver injury reported
Hepatotoxicity [3]: no drug-induced liver injury reported

CC(=O)[C@H]1CC[C@H]2[C@@H]3CCC4=CC(=O)CC[C@]4(C)[C@H]3CC[C@]12C (stereo in doubt; form 1) [PROGESTERONE]
Hepatotoxicity [1]: drug-induced liver injury reported
Hepatotoxicity [2]: drug-induced liver injury reported
Hepatotoxicity [3]: drug-induced liver injury reported

COc1cc2c(cc1O)CC[C@@H]1[C@@H]2CC[C@]2(C)[C@@H](O)CC[C@@H]12 [2-METHOXYESTRADIOL]
Hepatotoxicity [1]: drug-induced liver injury reported
Hepatotoxicity [2]: drug-induced liver injury reported
Hepatotoxicity [3]: no drug-induced liver injury reported

O=c1[nH]cc(Br)c(=O)[nH]1 [5-BROMOURACIL]
Hepatotoxicity [1]: no drug-induced liver injury reported
Hepatotoxicity [2]: drug-induced liver injury reported
Hepatotoxicity [3]: no drug-induced liver injury reported

Cc1cn([C@@H]2O[C@H](CO)[C@@H](O)[C@@H]2F)c(=O)[nH]c1=O [5-METHYL-2'-FLUOROARAURACIL]
Hepatotoxicity [1]: drug-induced liver injury reported
Hepatotoxicity [2]: no drug-induced liver injury reported
Hepatotoxicity [3]: no drug-induced liver injury reported

C[C@H](N)[C@H](O)c1ccccc1 [(1R,2S)-PHENYLPROPANOLAMINE]
Hepatotoxicity [1]: no drug-induced liver injury reported
Hepatotoxicity [2]: drug-induced liver injury reported
Hepatotoxicity [3]: no drug-induced liver injury reported

CC(C)=CCN1CC[C@]2(C)c3cc(O)ccc3C[C@H]1[C@H]2C [(+)-PENTAZOCINE]
Hepatotoxicity [1]: no drug-induced liver injury reported
Hepatotoxicity [2]: drug-induced liver injury reported
Hepatotoxicity [3]: no drug-induced liver injury reported

NC(=O)c1ncn([C@@H]2O[C@H](CO)[C@@H](O)[C@H]2O)c1N [ACADESINE]
Hepatotoxicity [1]: no drug-induced liver injury reported
Hepatotoxicity [2]: drug-induced liver injury reported
Hepatotoxicity [3]: no drug-induced liver injury reported

C[C@H]1O[C@H](O[C@H]2[C@H](O)[C@@H](O)[C@@H](O[C@H]3[C@H](O)[C@@H](O)C(O)O[C@@H]3CO)O[C@@H]2CO)[C@H](O)[C@@H](O)[C@@H]1N[C@H]1C=C(CO)[C@@H](O)[C@H](O)[C@H]1O (stereo partly drawn) [ACARBOSE]
Hepatotoxicity [1]: drug-induced liver injury reported
Hepatotoxicity [2]: drug-induced liver injury reported
Hepatotoxicity [3]: no drug-induced liver injury reported

CCCC(=O)Nc1ccc(OCC(O)CNC(C)C)c(C(C)=O)c1 (stereo not drawn) [ACEBUTOLOL]
Hepatotoxicity [1]: drug-induced liver injury reported
Hepatotoxicity [2]: drug-induced liver injury reported
Hepatotoxicity [3]: no drug-induced liver injury reported

CC(=O)CC(c1ccc([N+](=O)[O-])cc1)c1c(O)c2ccccc2oc1=O (stereo not drawn) [ACENOCOUMAROL]
Hepatotoxicity [1]: drug-induced liver injury reported
Hepatotoxicity [2]: no drug-induced liver injury reported
Hepatotoxicity [3]: no drug-induced liver injury reported

CC(N)=O [ACETAMIDE]
Hepatotoxicity [1]: no drug-induced liver injury reported
Hepatotoxicity [2]: drug-induced liver injury reported
Hepatotoxicity [3]: no drug-induced liver injury reported

CC(=O)Nc1ccc(O)cc1 [ACETAMINOPHEN]
Hepatotoxicity [1]: drug-induced liver injury reported
Hepatotoxicity [2]: drug-induced liver injury reported
Hepatotoxicity [3]: drug-induced liver injury reported

CC(=O)Nc1nnc(S(N)(=O)=O)s1 [ACETAZOLAMIDE]
Hepatotoxicity [1]: drug-induced liver injury reported
Hepatotoxicity [2]: drug-induced liver injury reported
Hepatotoxicity [3]: drug-induced liver injury reported

CC(=O)O [ACETIC ACID]
Hepatotoxicity ([1]; Liver): drug-induced liver injury reported
Hepatotoxicity ([2]; Liver): drug-induced liver injury reported
Hepatotoxicity ([3]; Liver): drug-induced liver injury reported

CC(=O)c1ccc(S(=O)(=O)NC(=O)NC2CCCCC2)cc1 [ACETOHEXAMIDE]
Hepatotoxicity [1]: drug-induced liver injury reported
Hepatotoxicity [2]: no drug-induced liver injury reported
Hepatotoxicity [3]: no drug-induced liver injury reported

CC(=O)NO [ACETOHYDROXAMIC ACID]
Hepatotoxicity [1]: no drug-induced liver injury reported
Hepatotoxicity [2]: drug-induced liver injury reported
Hepatotoxicity [3]: no drug-induced liver injury reported

CC(=O)Nc1c(I)cc(I)c(C(=O)[O-])c1I.O.[Na+] [ACETRIZOATE SODIUM]
Hepatotoxicity [1]: no drug-induced liver injury reported
Hepatotoxicity [2]: drug-induced liver injury reported
Hepatotoxicity [3]: no drug-induced liver injury reported

CC(=O)O[C@H](CC(=O)[O-])C[N+](C)(C)C [ACETYLCARNITINE]
Hepatotoxicity [1]: no drug-induced liver injury reported
Hepatotoxicity [2]: drug-induced liver injury reported
Hepatotoxicity [3]: no drug-induced liver injury reported

CC(=O)OCC[N+](C)(C)C [ACETYLCHOLINE]
Hepatotoxicity ([1]; Liver): no drug-induced liver injury reported
Hepatotoxicity ([2]; Liver): drug-induced liver injury reported
Hepatotoxicity ([3]; Liver): drug-induced liver injury reported

CC(=O)N[C@@H](CS)C(=O)O [ACETYLCYSTEINE]
Hepatotoxicity [1]: drug-induced liver injury reported
Hepatotoxicity [2]: drug-induced liver injury reported
Hepatotoxicity [3]: no drug-induced liver injury reported

COc1cc(C)c(/C=C/C(C)=C/C=C/C(C)=C/C(=O)O)c(C)c1C [ACITRETIN]
Hepatotoxicity [1]: drug-induced liver injury reported
Hepatotoxicity [2]: drug-induced liver injury reported
Hepatotoxicity [3]: no drug-induced liver injury reported

Nc1nc2c(ncn2COCCO)c(=O)[nH]1 [ACYCLOVIR]
Hepatotoxicity [1]: drug-induced liver injury reported
Hepatotoxicity [2]: drug-induced liver injury reported
Hepatotoxicity [3]: no drug-induced liver injury reported
